Values after ≈ are worked out from the molar mass of the structure shown.
What follows are compounds tested on Enterococcus faecium (assay: In vitro antibacterial activity against E. faecium(VR) strain, OC3312 Van R).
Format: functional

Compound	MIC
CCCCCCCCCCCCCCCCCCOc1cccc(O)c1C(=O)O	128 µg/mL (≈ 315 µM)
CCCCCCCCCCCOc1cccc(O)c1C(=O)O	16 µg/mL (≈ 51.9 µM)
CCCCCCCCCCCCCCCCOc1cccc(O)c1C(=O)O	8 µg/mL (≈ 21.1 µM)
CC/C=C\CCCCCCCCCCOc1cccc(O)c1C(=O)O	16 µg/mL (≈ 45.9 µM)
CCCCCCCCCCCCCCOc1cccc(O)c1C(=O)O	4 µg/mL (≈ 11.4 µM)
CCCCCCCCOc1cccc(O)c1C(=O)O	128 µg/mL (≈ 481 µM)
O=C(O)c1c(O)cccc1OCCCCCc1ccccc1	128 µg/mL (≈ 426 µM)
CCCCCCCCCCCCCCCCCCCCOc1cccc(O)c1C(=O)O	> 128 µg/mL
O=C(O)c1c(O)cccc1OCCCc1ccccc1	> 128 µg/mL
O=C(O)c1c(O)cccc1OCCC(c1ccccc1)(c1ccccc1)c1ccccc1	16 µg/mL (≈ 37.7 µM)
CCCCCCCCCCCCOc1cccc(O)c1C(=O)O	8 µg/mL (≈ 24.8 µM)

What follows are compounds tested on Staphylococcus aureus (assay: In vitro antibacterial activity against methicillin resistant Staphylococcus aureus (MRSA) strain, OC2089).
Format: functional

Compound	MIC
CCCCCCCCCCCCCCCCCCOc1cccc(O)c1C(=O)O	128 µg/mL (≈ 315 µM)
CCCCCCCCCCCOc1cccc(O)c1C(=O)O	16 µg/mL (≈ 51.9 µM)
CCCCCCCCCCCCCCCCOc1cccc(O)c1C(=O)O	128 µg/mL (≈ 338 µM)
CC/C=C\CCCCCCCCCCOc1cccc(O)c1C(=O)O	32 µg/mL (≈ 91.8 µM)
CCCCCCCCCCCCCCOc1cccc(O)c1C(=O)O	> 32 µg/mL
CCCCCCCCOc1cccc(O)c1C(=O)O	64 µg/mL (≈ 240 µM)
O=C(O)c1c(O)cccc1OCCCCCc1ccccc1	64 µg/mL (≈ 213 µM)
CCCCCCCCCCCCCCCCCCCCOc1cccc(O)c1C(=O)O	> 128 µg/mL
O=C(O)c1c(O)cccc1OCCCc1ccccc1	> 128 µg/mL
O=C(O)c1c(O)cccc1OCCC(c1ccccc1)(c1ccccc1)c1ccccc1	8 µg/mL (≈ 18.8 µM)
CCCCCCCCCCCCOc1cccc(O)c1C(=O)O	8 µg/mL (≈ 24.8 µM)

The compounds below were run on Escherichia coli (assay: Ability to inhibit autophosphorylation of NR11 and/or transphosphorylation of NR1 TCS proteins from Escherichia coli).
Format: functional

Compound	IC50
CCCCCCCCCCCCCCCCCCOc1cccc(O)c1C(=O)O	130 µM
CCCCCCCCCCCOc1cccc(O)c1C(=O)O	44 µM
CCCCCCCCCCCCCCOc1ccccc1C(=O)O	89 µM
CCCCCCCCCCCCCCCCOc1cccc(O)c1C(=O)O	1.5 µM
CCCCCCCCCCCCCCOc1ccccc1C(=O)OC	> 500 µM
CC/C=C\CCCCCCCCCCOc1cccc(O)c1C(=O)O	7.8 µM
CCCCCCCCCCCCCCOc1cccc(O)c1C(=O)O	5 µM
CCCCCCCCCCCCCCOc1cccc(O)c1C(=O)OC	> 500 µM
CCCCCCCCOc1cccc(O)c1C(=O)O	> 500 µM
CCCCCCCCCCCCOc1cccc(O)c1C(=O)OC	> 500 µM
O=C(O)c1c(O)cccc1OCCCCCc1ccccc1	> 500 µM
CCCCCCCCCCCCCCCCCCCCOc1cccc(O)c1C(=O)O	> 500 µM
O=C(O)c1c(O)cccc1OCCCc1ccccc1	> 500 µM
O=C(O)c1c(O)cccc1OCCC(c1ccccc1)(c1ccccc1)c1ccccc1	63 µM
CCCCCCCCCCCCOc1cccc(O)c1C(=O)O	17 µM

The compounds below were run on Staphylococcus aureus (assay: In vitro antibacterial activity against Staphylococcus aureus strain, ATCC 29213).
Format: functional

Compound	MIC
CCCCCCCCCCCCCCCCCCOc1cccc(O)c1C(=O)O	128 µg/mL (≈ 315 µM)
CCCCCCCCCCCOc1cccc(O)c1C(=O)O	8 µg/mL (≈ 25.9 µM)
CCCCCCCCCCCCCCCCOc1cccc(O)c1C(=O)O	> 128 µg/mL
CC/C=C\CCCCCCCCCCOc1cccc(O)c1C(=O)O	32 µg/mL (≈ 91.8 µM)
CCCCCCCCCCCCCCOc1cccc(O)c1C(=O)O	> 64 µg/mL
CCCCCCCCOc1cccc(O)c1C(=O)O	64 µg/mL (≈ 240 µM)
O=C(O)c1c(O)cccc1OCCCCCc1ccccc1	64 µg/mL (≈ 213 µM)
CCCCCCCCCCCCCCCCCCCCOc1cccc(O)c1C(=O)O	> 128 µg/mL
O=C(O)c1c(O)cccc1OCCCc1ccccc1	> 128 µg/mL
O=C(O)c1c(O)cccc1OCCC(c1ccccc1)(c1ccccc1)c1ccccc1	4 µg/mL (≈ 9.42 µM)
CCCCCCCCCCCCOc1cccc(O)c1C(=O)O	8 µg/mL (≈ 24.8 µM)

Each compound was assayed on Enterococcus faecalis (assay: In vitro antibacterial activity against Enterococcus faecalis strain, OC3041).
Format: functional

Compound	MIC
CCCCCCCCCCCOc1cccc(O)c1C(=O)O	16 µg/mL (≈ 51.9 µM)
CCCCCCCCCCCCCCCCOc1cccc(O)c1C(=O)O	8 µg/mL (≈ 21.1 µM)
CC/C=C\CCCCCCCCCCOc1cccc(O)c1C(=O)O	16 µg/mL (≈ 45.9 µM)
CCCCCCCCCCCCCCOc1cccc(O)c1C(=O)O	4 µg/mL (≈ 11.4 µM)
CCCCCCCCOc1cccc(O)c1C(=O)O	128 µg/mL (≈ 481 µM)
O=C(O)c1c(O)cccc1OCCCCCc1ccccc1	128 µg/mL (≈ 426 µM)
O=C(O)c1c(O)cccc1OCCCc1ccccc1	> 128 µg/mL
O=C(O)c1c(O)cccc1OCCC(c1ccccc1)(c1ccccc1)c1ccccc1	16 µg/mL (≈ 37.7 µM)
CCCCCCCCCCCCOc1cccc(O)c1C(=O)O	8 µg/mL (≈ 24.8 µM)

Each compound was assayed on Bacillus subtilis (assay: Ability to inhibit autophosphorylation of KinA and/or Sp0F TCS proteins from Bacillus subtilis).
Format: functional

Compound	IC50
CCCCCCCCCCCCCCCCCCOc1cccc(O)c1C(=O)O	63 µM
CCCCCCCCCCCOc1cccc(O)c1C(=O)O	25 µM
CCCCCCCCCCCCCCOc1ccccc1C(=O)O	> 500 µM
CCCCCCCCCCCCCCCCOc1cccc(O)c1C(=O)O	3 µM
CCCCCCCCCCCCCCOc1ccccc1C(=O)OC	> 500 µM
CC/C=C\CCCCCCCCCCOc1cccc(O)c1C(=O)O	8 µM
CCCCCCCCCCCCCCCc1cccc(O)c1	> 500 µM
CCCCCCCCCCCCCCOc1cccc(O)c1C(=O)O	2.2 µM
CCCCCCCCCCCCCCOc1cccc(O)c1C(=O)OC	> 500 µM
CCCCCCCCOc1cccc(O)c1C(=O)O	190 µM
CCCCCCCCCCCCOc1cccc(O)c1C(=O)OC	> 500 µM
O=C(O)c1c(O)cccc1OCCCCCc1ccccc1	380 µM
CCCCCCCCCCCCCCCCCCCCOc1cccc(O)c1C(=O)O	> 500 µM
O=C(O)c1c(O)cccc1OCCCc1ccccc1	> 500 µM
O=C(O)c1c(O)cccc1OCCC(c1ccccc1)(c1ccccc1)c1ccccc1	85 µM
CCCCCCCCCCCCCCCc1cc(O)cc(O)c1 [CARDOL]	235 µM
CCCCCCCCCCCCOc1cccc(O)c1C(=O)O	4.4 µM

Source: ChEMBL document CHEMBL1132034, “6-oxa isosteres of anacardic acids as potent inhibitors of bacterial histidine protein kinase (HPK)-mediated two-component regulatory systems” (Bioorg Med Chem Lett, 1999)
